# Source: PubChem BioAssay AID1259407 (Chemical Carcinogenesis Research Information System (CCRIS), 2018)
# The source made the active and inactive calls. How the calls were made is not given here.
# System: CCRIS mutagenicity, Ames/micronucleus/aberration tests
# Assay: CCRIS mutagenicity studies
# [1] = Test System: AMES SALMONELLA TYPHIMURIUM, Strain/Indicator: TA98, Metabolic Activation: NONE, Method: PREINCUBATION
# [2] = Test System: AMES SALMONELLA TYPHIMURIUM, Strain/Indicator: TA98, Metabolic Activation: NONE, Method: STANDARD PLATE
# [3] = Test System: AMES SALMONELLA TYPHIMURIUM, Strain/Indicator: TA100, Metabolic Activation: NONE, Method: STANDARD PLATE
compound,measurement,setting,value
CN(C)CCCN1c2ccccc2Sc2ccc(Cl)cc21,mutagenic call,"End Point: IN VITRO CHROMOSOMAL ABERRATIONS, Test System: CHINESE HAMSTER OVARY CELLS, Metabolic Activation: NONE",inactive; negative
same,mutagenic call,"End Point: IN VITRO CHROMOSOMAL ABERRATIONS, Test System: CHINESE HAMSTER OVARY CELLS, Metabolic Activation: RAT, LIVER, S-9, AROCLOR 1254",inactive; negative
same,mutagenic call,"Test System: AMES SALMONELLA TYPHIMURIUM, Strain/Indicator: TA98, Metabolic Activation: HAMSTER, LIVER, S-9, AROCLOR 1254 (10%), Method: PREINCUBATION",inactive; negative
same,mutagenic call,[1],inactive; negative
same,mutagenic call,"Test System: AMES SALMONELLA TYPHIMURIUM, Strain/Indicator: TA98, Metabolic Activation: NONE, Method: SPOT TEST",inactive; negative
same,mutagenic call,[2],inactive; negative
same,mutagenic call,"Test System: AMES SALMONELLA TYPHIMURIUM, Strain/Indicator: TA98, Metabolic Activation: RAT, LIVER, S-9, AROCLOR 1254 (10%), Method: PREINCUBATION",inactive; negative
same,mutagenic call,"Test System: AMES SALMONELLA TYPHIMURIUM, Strain/Indicator: TA98, Metabolic Activation: RAT, LIVER, S-9, AROCLOR 1254, Method: STANDARD PLATE",inactive; negative
same,mutagenic call,"Test System: AMES SALMONELLA TYPHIMURIUM, Strain/Indicator: TA100, Metabolic Activation: HAMSTER, LIVER, S-9, AROCLOR 1254 (10%), Method: PREINCUBATION",inactive; negative
same,mutagenic call,"Test System: AMES SALMONELLA TYPHIMURIUM, Strain/Indicator: TA100, Metabolic Activation: NONE, Method: PREINCUBATION",inactive; negative
same,mutagenic call,[3],inactive; negative
same,mutagenic call,"Test System: AMES SALMONELLA TYPHIMURIUM, Strain/Indicator: TA100, Metabolic Activation: RAT, LIVER, S-9, AROCLOR 1254 (10%), Method: PREINCUBATION",inactive; negative
same,mutagenic call,"Test System: AMES SALMONELLA TYPHIMURIUM, Strain/Indicator: TA100, Metabolic Activation: RAT, LIVER, S-9, AROCLOR 1254, Method: STANDARD PLATE",inactive; negative
same,mutagenic call,"Test System: AMES SALMONELLA TYPHIMURIUM, Strain/Indicator: TA1535, Metabolic Activation: HAMSTER, LIVER, S-9, AROCLOR 1254 (10%), Method: PREINCUBATION",inactive; negative
same,mutagenic call,"Test System: AMES SALMONELLA TYPHIMURIUM, Strain/Indicator: TA1535, Metabolic Activation: NONE, Method: PREINCUBATION",inactive; negative
same,mutagenic call,"Test System: AMES SALMONELLA TYPHIMURIUM, Strain/Indicator: TA1535, Metabolic Activation: NONE, Method: STANDARD PLATE",inactive; negative
same,mutagenic call,"Test System: AMES SALMONELLA TYPHIMURIUM, Strain/Indicator: TA1535, Metabolic Activation: RAT, LIVER, S-9, AROCLOR 1254 (10%), Method: PREINCUBATION",inactive; negative
same,mutagenic call,"Test System: AMES SALMONELLA TYPHIMURIUM, Strain/Indicator: TA1535, Metabolic Activation: RAT, LIVER, S-9, AROCLOR 1254, Method: STANDARD PLATE",inactive; negative
same,mutagenic call,"Test System: AMES SALMONELLA TYPHIMURIUM, Strain/Indicator: TA1537, Metabolic Activation: HAMSTER, LIVER, S-9, AROCLOR 1254 (10%), Method: PREINCUBATION",inactive; negative
same,mutagenic call,"Test System: AMES SALMONELLA TYPHIMURIUM, Strain/Indicator: TA1537, Metabolic Activation: NONE, Method: PREINCUBATION",inactive; negative
same,mutagenic call,"Test System: AMES SALMONELLA TYPHIMURIUM, Strain/Indicator: TA1537, Metabolic Activation: NONE, Method: STANDARD PLATE",inactive; negative
same,mutagenic call,"Test System: AMES SALMONELLA TYPHIMURIUM, Strain/Indicator: TA1537, Metabolic Activation: RAT, LIVER, S-9, AROCLOR 1254 (10%), Method: PREINCUBATION",active; positive
same,mutagenic call,"Test System: AMES SALMONELLA TYPHIMURIUM, Strain/Indicator: TA1537, Metabolic Activation: RAT, LIVER, S-9, AROCLOR 1254, Method: STANDARD PLATE",inactive; negative
same,mutagenic call,"Test System: CHINESE HAMSTER V-79, Strain/Indicator: V-79/6-THIOGUANINE, Metabolic Activation: NONE",inactive; negative
same,mutagenic call,"Test System: CHINESE HAMSTER V-79, Strain/Indicator: V-79/OUABAIN, Metabolic Activation: NONE",inactive; negative
N/C(=N\O)c1ccccc1,mutagenic call,"Test System: AMES SALMONELLA TYPHIMURIUM, Strain/Indicator: TA98, Metabolic Activation: CO631 CELLS, Method: PREINCUBATION",inactive; negative
same,mutagenic call,[1],inactive; negative
same,mutagenic call,"Test System: AMES SALMONELLA TYPHIMURIUM, Strain/Indicator: TA98, Metabolic Activation: RABBIT, LIVER, S-9, Method: PREINCUBATION",active; positive
same,mutagenic call,"Test System: AMES SALMONELLA TYPHIMURIUM, Strain/Indicator: TA98, Metabolic Activation: RAT HEPATOCYTES, Method: PREINCUBATION",inactive; negative
same,mutagenic call,"Test System: AMES SALMONELLA TYPHIMURIUM, Strain/Indicator: TA98, Metabolic Activation: RAT, LIVER, S-9, AROCLOR 1254, ATP, Method: PREINCUBATION",inactive; negative
same,mutagenic call,"Test System: AMES SALMONELLA TYPHIMURIUM, Strain/Indicator: TA98, Metabolic Activation: RAT, LIVER, S-9, AROCLOR 1254, Method: PREINCUBATION",inactive; negative
same,mutagenic call,"Test System: AMES SALMONELLA TYPHIMURIUM, Strain/Indicator: TA100, Metabolic Activation: RABBIT, LIVER, S-9, Method: PREINCUBATION",inactive; negative
same,mutagenic call,"Test System: AMES SALMONELLA TYPHIMURIUM, Strain/Indicator: TA100, Metabolic Activation: RAT HEPATOCYTES, Method: PREINCUBATION",inactive; negative
same,mutagenic call,"Test System: AMES SALMONELLA TYPHIMURIUM, Strain/Indicator: TA100, Metabolic Activation: RAT, LIVER, S-9, AROCLOR 1254, ATP, Method: PREINCUBATION",inactive; negative
same,mutagenic call,"Test System: AMES SALMONELLA TYPHIMURIUM, Strain/Indicator: TA100, Metabolic Activation: RAT, LIVER, S-9, AROCLOR 1254, Method: PREINCUBATION",inactive; negative
C[C@@]12CCC=C(C=O)[C@]1(C=O)C2,mutagenic call,[2],active; positive
same,mutagenic call,[3],active; positive
